Literature values as cited in patent US20040147613A1, “Use of neuroactive substances for the treatment of parkinsons disease and pharmaceutical combination” (priority 2001, published 2004).

Columns and labels:
[1] = tested on: local synapse populations / central projections
central DA-receptors = details: foetal administrations
[2] = tested on: GABAergic axosomatic synapses in the medial prefrontal cortex; details: 4-month chronic treatment, rat

Molecule: CNCCCN1c2ccccc2CCc2ccccc21 [desipramine]
- axonal sprouting of central projections ([1]; chronic treatment): induces axonal sprouting of central noradrenergic and probably also dopaminergic cortical projections

Molecule: β-endorphin
- effect on central DA-receptors (central DA-receptors): expression of the plastic capacities, typical of adult rats, of central DA-receptors ceases

Molecule: O=C(CCCN1CCC(O)(c2ccc(Cl)cc2)CC1)c1ccc(F)cc1 [haloperidol]
- sprouting of glutamatergic corticostriatal projections ([1]; 14-day chronic treatment): indications of transsynaptic sprouting of glutamatergic corticostriatal projections
- number of GABAergic axosomatic synapses in the medial prefrontal cortex [2]: dramatic rise in the number of GABAergic axosomatic synapses
